The values below come from US20070077316A1, “Compositions and methods for treating and preventing virus infections” (priority 2005, published 2007).

pEC50: −log10 of the molar value. Where two headings read alike, the source gives them in different places.

The subject of one data set is HIV. The data set is described as follows: Infectivity of HIV in MT-2 cells or PBMCs at different control virus titers. The format is cell-based.
A further data set concerns mock-infected HeLa cells. The data set is described as follows: Toxicity (cell viability) in mock-infected HeLa cells, XTT test. In kind it is cell-based, human. Particulars: at EC50 concentrations (0.1 μM and below). As to the method:
Inhibition by CapsiVirol-T of the HRV cytopathic effect and effects on cell viability were tested using a HeLa strain which is less sensitive to tNOX inhibitors than certain other HeLa cells (Institute for Infectious Medicine, Berlin, Germany) (FIG. 17). In these studies, both CapsiVirol-T and EGCg, the principal green tea catechin, were tested. […] The test substance-containing medium was removed and the cells were infected with viruses at a multiplicity of infection of 0.1. For controls, virus infections were in the absence of the test substance. Mock infections were in the presence and absence of the test substance. Cell viability was measured in the XTT test directly at the days post infection (d.p.i.) indicated (FIG. 17). […] The cytopathic effect induced by a virus was determined from a decrease of cell viability (=decrease of […] nm in comparison to the mock infected control in the absence of the test substance). Cell viability was monitored using the XTT test after 1, 2, and 3 days p.i. A control was at 1.5 h p.i. (in the figure 0 d p.i.) (FIG. 18). High OD values represent living cells, and low OD values represent cell damage. This damage is either induced by HRV14 (=cytopathic effect/CPE) or a toxic effect of the compound in mock-infected cells.
Background: Formazan colour is commonly taken as a measure of viable cells.

Data set [1] deals with human peripheral blood lymphocytes. Briefly: Viability of human peripheral blood lymphocytes. The format is cell-based. Particulars: data not shown.
A further data set has as its system Herpes simplex virus 1. The format is cell-based. Particulars: HeLa cells.

Broadly, the pEC50 is −log10 of the EC50, conventionally taken in molar units.

As to `O=C(O[C@@H]1Cc2c(O)cc(O)cc2O[C@@H]1c1cc(O)c(O)c(O)c1)c1cc(O)c(O)c(O)c1` [EGCg, (−)-epigallocatechin-3-gallate], in the data set on HIV (1 μM), the “infectivity (syncytia reassay)” value was “almost entirely prevented”. Further, the pEC50 in the data set on HIV (control virus production of 14,000 infective particles/ml, read-out: EC50 reducing infectivity of HIV) is around 6.00; in the data set with HIV (control virus production of 40,000 infective particles/ml, read-out: EC50 reducing infectivity of HIV), around 5.00; with HIV (read-out: EC50 for prevention of infection (day 4 supernatants reassayed on MT-2 cells, syncytia after 5 days)) it was around 7.00. For the same compound, in the data set on mock-infected HeLa cells, the toxicity result is reported as “not toxic”. For the same compound, the effect on viability result in data set [1] is given as “without effect”. In the data set with Herpes simplex virus 1, the infection entry is “prevented”.
